Reference: PMC5507927, “Lybatides from Lycium barbarum Contain An Unusual Cystine-stapled Helical Peptide Scaffold” (Scientific Reports, 2017)
Positions of bridges follow the written chain, without caps; N, C: chain ends. Residues, ends and D or L forms follow the SMILES beside them.

Tests used:
trypsin = experiment: Enzymatic stability with trypsin (RP-HPLC profile against control); assay type: in vitro ADME; conditions: trypsin (1 μL of 0.5 μg/μL), 37 °C, 10 μg peptide in 100 μL 100 mM ammonium bicarbonate buffer pH 7.8, RP-HPLC profile compared with control without trypsin, read-out: peptide not degraded when incubated with trypsin
Experimental: CRPs with a well-defined disulfide core are known for their compact structure and high resistance to heat and enzymatic degradation. This stability is an important characteristic for CRPs as putative bioactive peptides in order for them to survive decoction processes in traditional herbal preparations and to retain both bioavailability and pharmacological effects by oral administration. […] A total of 96% of lyba1 remained after heating in boiling water at 100 °C for 2 h. Similarly, 99% of the peptide remained intact after incubation in 2 M HCl for 3 h, and 99% of the peptide was not degraded when incubated with trypsin for 3 h (Fig. 5).
Figure 5 Stability assays of lybatide, lyba1. (A) Thermal stability of lyba1 incubated at 100 °C for 2 h. (B) Acidic condition stability of lyba1 incubated in 2.0 M HCl […] for […]. […] (D) Stability of lyba1 incubated in human serum for 60 min at 37 °C, DALK was used as a control. The molecular weight of the peak was determined by MALDI-MS. TEXT PRINTED IN THE PICTURE: (A) lyba1: Cald.: 3509; Found: 3509 | (B) lyba1: Cald.: 3509; Found: 3509 | (C) lyba1: Cald.: 3509; Found: 3509 DOUBTS OF THE COPYIST ABOUT THIS PICTURE: lyba1, panels A-C: 'Cald.' and 'Found' are printed with no measure or unit. I took them as molecular weight, but they may be only mass-spectrometric peak identification. […]

[1] = test system: monkey kidney epithelial cells (Vero, ATCC CCL-81); experiment: MTT cell toxicity assay; assay type: cell-based; conditions: overnight incubation, tested up to 100 μM (method section: 0.01-10 μM)
Experimental: (§1) Many CRPs including defensins, thionins and hevein-like peptides display antimicrobial or cytotoxic activity.
(§2) Lybatide lyba1 was tested for its cytotoxicity effect against human umbilical vein endothelial cells (HUVEC-CS, ATCC CRL-2873), monkey kidney epithelial cells (Vero, ATCC CCL-81) and adenocarcinomic human alveolar basal epithelial cells (A549, ATCC CCL-185). Briefly, 1 × 10^4 cells per well in 100 μL were seeded into a 96-well plate (TPP, Switzerland) and incubated overnight. The supernatant was removed, and the cells were washed twice with phosphate buffered saline (PBS; Gibco, USA). The cells were then treated with lyba1 at concentrations 0.01 μM, 0.1 μM, 1 μM, and 10 μM and incubated overnight, with 10% DMSO used as positive control.
(§3) After incubation, MTT was added to the wells and the plate was incubated for 1.5 h at 36.7 °C. Next, 200 μL of 100% DMSO was added, incubated for 2 h, and the absorbance was determined with a microplate reader at 550 nm wavelength.

[2] = test system: human umbilical vein endothelial cells (HUVEC-CS, ATCC CRL-2873); experiment: MTT cell toxicity assay; assay type: cell-based; conditions: overnight incubation, tested up to 100 μM (method section: 0.01-10 μM)
Experimental: as §1, §2, §3

[3] = test system: adenocarcinomic human alveolar basal epithelial cells (A549, ATCC CCL-185); experiment: MTT cell toxicity assay; assay type: cell-based; conditions: overnight incubation, tested up to 100 μM (method section: 0.01-10 μM)
Experimental: as §1, §2, §3

For `CC[C@H](C)[C@@H]1NC(=O)[C@@H]2CSSC[C@H](NC(=O)[C@H](CO)NC(=O)[C@@H](N)CC(=O)O)C(=O)N[C@@H](CO)C(=O)N[C@@H](CCC(=O)O)C(=O)N[C@@H](Cc3ccc(O)cc3)C(=O)N[C@H]3CSSC[C@@H](C(=O)N4CCC[C@H]4C(=O)N[C@@H](CO)C(=O)O)NC(=O)[C@H](CSSC[C@H](NC(=O)[C@H](CO)NC(=O)[C@H](CC(N)=O)NC(=O)[C@H](CC(N)=O)NC(=O)[C@H](CO)NC3=O)C(=O)N3CCC[C@H]3C(=O)N[C@@H](Cc3ccc(O)cc3)C(=O)N[C@H]3CSSC[C@H](NC(=O)[C@H](CC(C)C)NC(=O)[C@H]([C@@H](C)O)NC(=O)[C@H](Cc4ccc(O)cc4)NC(=O)[C@H](CC(C)C)NC(=O)[C@H](CCCCN)NC(=O)[C@H](CCC(N)=O)NC(=O)CNC(=O)[C@H](CC(=O)O)NC3=O)C(=O)N2)NC(=O)[C@H]([C@@H](C)O)NC(=O)[C@H](CC(N)=O)NC1=O` [lyba1] (H-DSCSEYCSNNSCPYCDGQKLYTLCCINTCCPS-OH; disulfide 3-25, 7-30, 12-29, 15-24), the remaining at 3 h, 100 µg/mL (trypsin) was 99%, the cytotoxic effect [1] was “did not display any cytotoxic effect” and the cytotoxic effect [2] was “did not display any cytotoxic effect”. For the same compound, the cytotoxic effect [3] was “did not display any cytotoxic effect”.
